Here are results for 22 compounds from patent US9029381B2, “Cyclopropyl amide derivatives” (Astrazeneca AB, priority 2007, dated 2015).

Experiment [1] has as its target human Histamine H3 receptor (hH3R) (Homo sapiens (Human), UniProt Q9Y5N1). The experiment in a line: Guanosine 5'-O-(3-[35S]thio)triphosphate [GTPγS] binding assay. Conditions: antagonist mode vs (R)-α-methyl histamine 30 nM; membranes from CHO cells expressing hH3R. The format is biochemical. The method, then:
(§1) The IC50 and nH can be determined by fitting the data to model 205 in XLfit: y=A+((B−A)/(1+((C/x)^D)). Guanosine 5′-O-(3-[^35S]thio)triphosphate [GTPγS] Binding Assay
A GTPγS binding assay can be used to investigate antagonist properties of compounds in CHO cells (Chinese Hamster Ovary) transfected with human Histamine H3 receptor (hH3R). Membranes from CHO cells expressing hH3R (10 μg/well) are diluted in GTPγS assay buffer (20 mM Hepes, 10 mM MgCl2, 100 mM NaCl, pH 7.4) and preincubated with saponine (3 μg/ml), GDP (10 μM) and PVT-WGA SPA beads (125 μg/well) (Amersham) for 30 minutes. To determine antagonist activity, (R)-α-methyl histamine (30 nM) is added in 96 well SPA plate with [^35S]GTPγS (0.2 nM) and various concentration of H3R antagonists. The GTPγS binding assay is started with addition of the mixture membrane/saponine/GDP and incubated for 90 minutes at room temperature. The amount of bound [^35S]GTPγS is determined by using the MicroBeta Trilux counter (PerkinElmer). The percentage of [^35S]GTPγS bound in each sample is calculated as a percentage of that bound control sample incubated in absence of H3 antagonist. Duplicate determinations are obtained for each concentration, and the data are analyzed using ExcelFit4 to obtain the IC50.
On the technique in general: Binding of GTPγS marks nucleotide exchange on a G protein.

The target in experiment [2] is human histamine H3 receptors (Homo sapiens (Human), UniProt Q9Y5N1). The experiment in a line: Histamine H3 SPA with the agonist radioligand [3H]-N-α-methylhistamine (hH3 binding). Conditions: inhibition of [3H]-N-α-methylhistamine (1.4 nM) binding to CHO-K1 membranes expressing full-length human H3 (isoform 445). On the procedure: Histamine H3 SPA with the Agonist Radioligand [^3H]-N-α-Methylhistamine
The H3 binding assay was/can be used to evaluate the ability of at least one compound in accordance with formula I, Ia, Ib, and/or Ic to inhibit [^3H]-N-α-methylhistamine binding to CHO-K1 membranes expressing human histamine H3 receptors (full-length H3, the most prevalent brain isoform 445). In 200 μl 96-well SPA format, human H3 membranes (12.5 μg protein/well) and 1.4 nM [^3H]-N-α-methylhistamine were/can be incubated with at least one compound in accordance with formula I, Ia, Ib, and/or Ic for 1.5 hrs to determine percent effect with respect to total (1% DMSO) and non-specific binding (10 μM imetit). […] Single poke (SP) testing can be done in triplicate.
Membranes, prepared from CHO-K1 cells stably expressing the human histamine H3 receptor, can be obtained from ACS.
Tested formula I, Ia, Ib, and/or Ic compounds were/can be provided as solubilized samples in neat DMSO. Serial dilutions were/can be performed in DMSO.
Plates were/can be 96-well Unifilter GF/B (Perkin Elmer, 6005177). Plates were/can be read on a Perkin Elmer TopCount. CPM data was/can be used to analyze unless DPM data generated by a quench curve was/is required.
• 1. 1 mg/ml BSA was/can be added to assay buffer (AB) on day of assay. • 2. Amounts required for bead/membrane pool in AB were/can be calculated: “P”−need 17.1 ml/assay plate+10 ml PlateMate excess. Buffer volume was/can be split between beads and membranes to allow for polytroning of membranes prior to addition to beads. • a. […] A minimum of 15 minutes was/can be waited prior to adding membranes (See b. below). • b. Membranes (hH3 membranes from CHO cells containing recombinant human H3 receptors, 11.7 mg/ml): membranes were/can be removed from −80° C. and thawed in RT waterbath. (0.0702 mg/ml×P) mg of membranes were/can be resuspended in the remaining volume not used with beads above for 12.5 μg/well final and homogenized briefly at polytron speed 5.0. The homogenized membrane mixture was/can be combined with the beads and a minimum of 30 minutes was/can be waited prior to dispensing to plate. • 3. Formula I, Ia, Ib, and/or Ic compounds: For Single Poke, 2 μl mM of a compound in accordance with formula I, Ia, Ib, and/or Ic was/can be dispensed to Optiplates (triplicate plates) for final a concentration of 10 μM. […] Imetit (see below) was/can be used as a control. • 4. […] [^3H]-N-α-methylhistamine ([^3H]-NAMH): A solution in AB at 14 nM, 10× final concentration of 1.4 nM was/can be prepared. 5 μl samples were/can be calculated in quadruplicate on the 13 counter. If concentration was/is 12-14.5 nM, no adjustment was/is may be required. (For IC50s, use final concentration on calculation tab of ABase template.) Assay • 1. […] 2 μl of the formula I, Ia, Ib, and/or Ic compound dilution was/can be mixed and then transferred into assay plates. DMSO was/can be removed and 2 μl of 100 μM Imetit was/can be added to the wells. • 3. 178 μl bead/membrane mixture was/can be dispensed into the assay plate. • 4. 20 μl [^3H]-NAMH was/can be added with Rapid Plate. The assay plate was/can be sealed and incubated for 1.5 hr on RT shaker at speed ˜6.5. • 5. The assay plate was/can be subsequently centrifuged at 1000 rpm for 10 minutes. • 6. The count was/can be performed on TopCount using one of the 3H SPA H3 Quench programs.
The DPM data was/can be analyzed when tSIS was/is less than that associated with 70% of full scale on the quench curve (tSIS<25%). Otherwise, CPM data was/is used.
as §1

SMILES strings stand for the structures. A value given as a limit tells only on which side of the number the result lay.

Sequence of human Histamine H3 receptor (hH3R) (Q9Y5N1 whole entry): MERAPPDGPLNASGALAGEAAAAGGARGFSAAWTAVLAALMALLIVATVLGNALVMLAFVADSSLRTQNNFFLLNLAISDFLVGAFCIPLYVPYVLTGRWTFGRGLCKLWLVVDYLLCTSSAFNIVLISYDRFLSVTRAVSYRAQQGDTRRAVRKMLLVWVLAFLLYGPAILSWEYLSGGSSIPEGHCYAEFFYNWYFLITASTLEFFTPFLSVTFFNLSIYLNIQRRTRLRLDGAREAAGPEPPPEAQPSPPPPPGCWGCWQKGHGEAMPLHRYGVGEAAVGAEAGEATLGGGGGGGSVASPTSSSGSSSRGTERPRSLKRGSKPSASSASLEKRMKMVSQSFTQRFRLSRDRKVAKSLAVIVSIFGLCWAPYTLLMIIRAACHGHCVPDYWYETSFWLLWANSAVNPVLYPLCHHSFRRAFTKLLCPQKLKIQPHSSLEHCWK
Sequence of human histamine H3 receptors (Q9Y5N1 whole entry, canonical isoform): as the sequence (Q9Y5N1 whole entry) above

On to `O=C([C@@H]1C[C@H]1c1cccc(N2CCCC2=O)c1)N1CCN(C2CCC2)CC1` (single isomer, unassigned; enantiomer 2) [Example 39, 1-(3-((trans)-2-(4-cyclobutylpiperazine-1-carbonyl)cyclopropyl)phenyl)pyrrolidin-2-one, enantiomer 2], for which the IC50 (commonly the point on the concentration scale where inhibition reaches its midpoint) in experiment [1] was more than 1800 nM.
On the same count and under the same terms, then `O=C([C@@H]1C[C@H]1c1cccc(N2CCCCC2=O)c1)N1CCN(C2CCC2)CC1` (single isomer, unassigned; enantiomer 2) [Example 41, 1-(3-((trans)-2-(4-cyclobutylpiperazine-1-carbonyl)cyclopropyl)phenyl)piperidin-2-one, enantiomer 2], with 733 nM.
On to `O=C([C@H]1C[C@@H]1c1ccccc1)N1CCN(C2CCCCC2)CC1` (relative stereo) [Example 2, trans-(4-Cyclohexylpiperazin-1-yl)-(2-phenyl-cyclopropyl)methanone], for which, in experiment [2], the IC50 was 105 nM.
Still for that read-out and setting: the figure for `O=C([C@H]1C[C@@H]1c1ccc(C(F)(F)F)nc1)N1CCN(C2CCC2)CC1` (relative stereo) [Example 26, trans-(4-Cyclobutylpiperazin-1-yl)(2-(6-(trifluoromethyl)pyridin-3-yl)cyclopropyl)methanone] is 88.3 nM.
Compound `NC(=O)c1cccc([C@@H]2C[C@H]2C(=O)N2CCN(C3CCC3)CC2)c1` (single isomer, unassigned; enantiomer 1) [Example 36, 3-((trans)-2-(4-cyclobutylpiperazine-1-carbonyl)cyclopropyl)benzamide, enantiomer 1] yielded an IC50 in experiment [1] of 6.19 nM.
With `O=C([C@H]1C[C@@H]1c1ccccc1)N1CCN(C2CCC2)CC1` (relative stereo) [Example 4, trans-(4-Cyclobutylpiperazin-1-yl)-(2-phenylcyclopropyl)methanone], in experiment [2], the IC50 is 6.4 nM.
Same read-out and setting: the figure for `N#Cc1cccc([C@@H]2C[C@H]2C(=O)N2CCN(C3CCC3)CC2)c1` (relative stereo) [Example 29, trans-3-[2-(4-cyclobutylpiperazine-1-carbonyl)cyclopropyl]benzonitrile] is 0.834 nM.
Turning to `CS(=O)(=O)Nc1cccc([C@@H]2C[C@H]2C(=O)N2CCN(C3CCC3)CC2)c1` (relative stereo) [Example 30, trans-N-{3-[2-(4-Cyclobutylpiperazine-1-carbonyl)cyclopropyl]phenyl}methanesulfonamide], in experiment [1], the IC50 was 8.59 nM.
`O=C([C@H]1C[C@@H]1c1ccc(-c2cncnc2)cc1)N1CCN(C2CCC2)CC1` [Example 46, (4-cyclobutylpiperazin-1-yl)((1S,2S)-2-(4-(pyrimidin-5-yl)phenyl)cyclopropyl)methanone] yielded an IC50 in experiment [1] of 20.2 nM.
`NC(=O)c1ccc([C@@H]2C[C@H]2C(=O)N2CCN(C3CCC3)CC2)cc1` (single isomer, unassigned; enantiomer 1) [Example 43, 4-((trans)-2-(4-cyclobutylpiperazine-1-carbonyl)cyclopropyl)benzamide, enantiomer 1] yielded an IC50 in experiment [1] of 3.81 nM.
In turn, `NC(=O)c1ccc([C@@H]2C[C@H]2C(=O)N2CCN(C3CCC3)CC2)cc1` (single isomer, unassigned; enantiomer 2) [Example 44, 4-((trans)-2-(4-cyclobutylpiperazine-1-carbonyl)cyclopropyl)benzamide, enantiomer 2] yielded an IC50 in experiment [1] of 834 nM.
In experiment [2], `O=C([C@H]1C[C@@H]1c1ccc(N2CCCC2)cc1)N1CCN(C2CCC2)CC1` (relative stereo) [Example 19, trans-(4-cyclobutylpiperazin-1-yl) {-2-[4-(pyrrolidin-1-yl)phenyl]cyclopropyl}methanone] returned an IC50 of 351 nM.
For `O=C([C@H]1C[C@@H]1c1ccccc1)N1CCN(C2CC2)CC1` (relative stereo) [Example 5, trans-(4-Cyclopropylpiperazin-1-yl)-(2-phenylcyclopropyl)methanone], the IC50 in experiment [2] came to 44.7 nM.
Regarding `O=C([C@@H]1C[C@H]1c1cccc(Br)c1)N1CCN(C2CCC2)CC1` (relative stereo) [Example 28, trans-[2-(3-Bromophenyl)cyclopropyl]-(4-cyclobutylpiperazin-1-yl)methanone], the IC50 in experiment [2] came out at 1.37 nM.
With `CN1CCN(c2ccc([C@H]3C[C@@H]3C(=O)N3CCN(C4CCC4)CC3)cc2)C1=O` (relative stereo) [Example 16, trans-1-{4-[2-(4-Cyclobutylpiperazine-1-carbonyl)cyclopropyl]phenyl}-3-methylimidazolidin-2-one], in experiment [2], the IC50 is 441 nM.
Same read-out and setting: then `O=C([C@H]1C[C@@H]1c1ccccc1)N1CCN(C2CCCC2)CC1` (relative stereo) [Example 6, trans-(4-Cyclopentylpiperazin-1-yl)-(2-phenylcyclopropyl)methanone], with 14 nM; and `O=C([C@H]1C[C@@H]1c1ccccc1)N1CCN(C2CCCCCC2)CC1` (relative stereo) [Example 3, trans-(4-Cycloheptylpiperazin-1-yl)-(2-phenylcyclopropyl)methanone], with 4160 nM.
In experiment [2], `O=C([C@H]1C[C@@H]1c1ccccc1)N1CCCN(C2CCC2)CC1` (relative stereo) [Example 8, trans-(4-Cyclobutyl-1,4-diazepan-1-yl)-(2-phenylcyclopropyl)methanone] yielded an IC50 of 7.56 nM.
On the same count and under the same terms, the figure for `O=C([C@@H]1C[C@H]1c1ccc(F)cc1)N1CCN(C2CCC2)CC1` (relative stereo) [Example 27, trans-(4-Cyclobutylpiperazin-1-yl)-[2-(4-fluorophenyl)cyclopropyl]methanone] is 7.3 nM.
In turn, `CS(=O)(=O)Nc1ccc([C@H]2C[C@@H]2C(=O)N2CCN(C3CCC3)CC2)cc1` (relative stereo) [Example 18, trans-N-{4-[2-(4-Cyclobutylpiperazine-1-carbonyl)cyclopropyl]phenyl}methane-sulfonamide] yielded an IC50 in experiment [2] of 62.5 nM.
In experiment [2], `CC(C)(C)N1CCN(C(=O)[C@H]2C[C@@H]2c2ccccc2)CC1` (relative stereo) [Example 9, trans-(4-tert-Butylpiperazin-1-yl)-(2-phenylcyclopropyl)methanone] registered an IC50 of 45.3 nM.
On the same count and under the same terms, the figure for `O=C([C@H]1C[C@@H]1c1ccc(Br)cc1)N1CCN(C2CCC2)CC1` (relative stereo) [Example 13, trans-[2-(4-Bromophenyl)cyclopropyl]-(4-cyclobutylpiperazin-1-yl)methanone] is 13.3 nM.
